According to patent US20250353820A1, “ANTIVIRAL PYRAZOLOPYRIDINONE COMPOUNDS” (Novartis AG, priority 2019, published 2025):
pEC50, pIC50: −log10 of the molar value. Where two headings read alike, the source gives them in different places.

How the values were obtained:
[1] = system: Luciferase-encoding HCMV (AD169 strain); test: microbe, parasite or virus in culture; format: cell-based
[2] = target: human HSV DNA polymerase UL30 (Human herpesvirus 1 (strain 17) (HHV-1) (Human herpes simplex virus 1), UniProt P04293); test: biochemical; conditions: 20 minutes at room temperature
[3] = target: human CMV DNA polymerase UL54 (Human cytomegalovirus (strain AD169) (HHV-5) (Human herpesvirus 5), UniProt P08546); test: biochemical
[4] = read-out: CMV-Luc Cellular EC50, NN-NHDF cells, MOI of 1, 72 hrs
[5] = HSV-polymerase Biochemical IC50, 625 pM HSV polymerase
[6] = 625 pM HSV polymerase, read-out: HSV-polymerase Biochemical IC50
[7] = 100 pM CMV polymerase, 60 minutes at room temperature, read-out: CMV-polymerase Biochemical IC50

SMILES	pEC50 [1, 4]	pIC50 [2, 6]	other results
CC1Cc2c(C(=O)NCc3ccc(C#N)cc3)nn(C)c2C(=O)N1CC1(S(C)(=O)=O)CC1 (single isomer, unassigned) [Example 41, (R)- or (S)—N-(4-cyanobenzyl)-1,5-dimethyl-6-((1-(methylsulfonyl)cyclopropyl)methyl)-7-oxo-4,5,6,7-tetrahydro-1H-pyrazolo[3,4-c]pyridine-3-carboxamide]	< 5.00		
CC1Cc2c(C(=O)NCc3ccc(C#N)cc3)nn(C)c2C(=O)N1CC1(S(C)(=O)=O)CC1 (single isomer, unassigned) [Example 42, (R)- or (S)—N-(4-cyanobenzyl)-1,5-dimethyl-6-((1-(methylsulfonyl)cyclopropyl)methyl)-7-oxo-4,5,6,7-tetrahydro-1H-pyrazolo[3,4-c]pyridine-3-carboxamide]	5.93		
Cn1nc(C(=O)NCc2ccc(C#N)cc2)c2c1C(=O)N(CC1(S(=O)(=O)C(C)(C)COC(F)CO)CC1)CC2 (single isomer, unassigned) [Example 81, (R)- or (S)—N-(4-cyanobenzyl)-6-((1-((1-(1-fluoro-2-hydroxyethoxy)-2-methylpropan-2-yl)sulfonyl)cyclopropyl)methyl)-1-methyl-7-oxo-4,5,6,7-tetrahydro-1H-pyrazolo[3,4-c]pyridine-3-carboxamide]	7.38		
Cn1nc(C(=O)NCc2ccc(C#N)cc2)c2c1C(=O)N(CC1(S(=O)(=O)C(C)(C)COC(F)CN)CC1)CC2 (single isomer, unassigned) [Example 82, (R)- or (S)-6-((1-((1-(2-amino-1-fluoroethoxy)-2-methylpropan-2-yl)sulfonyl)cyclopropyl)methyl)-N-(4-cyanobenzyl)-1-methyl-7-oxo-4,5,6,7-tetrahydro-1H-pyrazolo[3,4-c]pyridine-3-carboxamide]	7.54		
Cn1nc(C(=O)NCc2ccc(C#N)cc2)c2c1C(=O)N(CC1(S(=O)(=O)C(C)(C)COC(F)CN)CC1)CC2 (single isomer, unassigned) [Example 83, (R)- or (S)-6-((1-((1-(2-amino-1-fluoroethoxy)-2-methylpropan-2-yl)sulfonyl)cyclopropyl)methyl)-N-(4-cyanobenzyl)-1-methyl-7-oxo-4,5,6,7-tetrahydro-1H-pyrazolo[3,4-c]pyridine-3-carboxamide]	6.88		
CC(O)COCC(C)(C)S(=O)(=O)C1(CN2CCc3c(C(=O)NCc4ccc(C#N)cc4)nn(C)c3C2=O)CC1 (single isomer, unassigned) [Example 91, (R)- or (S)—N-(4-Cyanobenzyl)-6-((1-((1-(2-hydroxypropoxy)-2-methylpropan-2-yl)sulfonyl)cyclopropyl)methyl)-1-methyl-7-oxo-4,5,6,7-tetrahydro-1H-pyrazolo[3,4-c]pyridine-3-carboxamide]	7.12		
CC(N)COCC(C)(C)S(=O)(=O)C1(CN2CCc3c(C(=O)NCc4ccc(Cl)cc4)nn(C)c3C2=O)CC1 (single isomer, unassigned) [Example 97]			pIC50 [2, 5]: 7.64; pIC50 [3]: 9.00
CC(N)COCC(C)(C)S(=O)(=O)C1(CN2CCc3c(C(=O)NCc4ccc(Cl)cc4)nn(C)c3C2=O)CC1 (single isomer, unassigned) [Example 98]			pIC50 [2, 5]: 7.59; pIC50 ([3]; read-out: CMV-polymerase Biochemical IC50, 100 pM CMV polymerase, 60 minutes at room temperature): 9.00
CC(N)COCC(C)(C)S(=O)(=O)C1(CN2CCc3c(C(=O)NCc4ccc(C#N)cc4)nn(C)c3C2=O)CC1 (single isomer, unassigned) [Example 99]			pIC50 [2, 5]: 7.20; pIC50 [3]: 8.40
CC1=NOC(C(C)(C)S(=O)(=O)C2(CN3CCc4c(C(=O)NCc5ccc(C#N)cc5)nn(C)c4C3=O)CC2)C1 (single isomer, unassigned) [Example 111, (R)- or (S)—N-(4-Cyanobenzyl)-1-methyl-6-((1-((2-(3-methyl-4,5-dihydroisoxazol-5-yl)propan-2-yl)sulfonyl)cyclopropyl)methyl)-7-oxo-4,5,6,7-tetrahydro-1H-pyrazolo[3,4-c]pyridine-3-carboxamide]	6.80		
CC1=NOC(C(C)(C)S(=O)(=O)C2(CN3CCc4c(C(=O)NCc5ccc(C#N)cc5)nn(C)c4C3=O)CC2)C1 (single isomer, unassigned) [Example 112, (R)- or (S)—N-(4-Cyanobenzyl)-1-methyl-6-((1-((2-(3-methyl-4,5-dihydroisoxazol-5-yl)propan-2-yl)sulfonyl)cyclopropyl)methyl)-7-oxo-4,5,6,7-tetrahydro-1H-pyrazolo[3,4-c]pyridine-3-carboxamide]	7.19		
CC(O)CC(C)(C)S(=O)(=O)C1(CN2CCc3c(C(=O)NCc4ccc(C#N)cc4)nn(C)c3C2=O)CC1 (single isomer, unassigned) [Example 116, (R)- or (S)—N-(4-Cyanobenzyl)-6-((1-((4-hydroxy-2-methylpentan-2-yl)sulfonyl)cyclopropyl)methyl)-1-methyl-7-oxo-4,5,6,7-tetrahydro-1H-pyrazolo[3,4-c]pyridine-3-carboxamide]	7.41		
Cn1nc(C(=O)NCc2ccc(C#N)cc2)c2c1C(=O)N(CC1(S(=O)(=O)N3CCC(C)(O)C3)CC1)CC2 (single isomer, unassigned) [Example 131, (R)- or (S)-N-(4-Cyanobenzyl)-6-((1-((3-hydroxy-3-methylpyrrolidin-1-yl)sulfonyl)cyclopropyl)methyl)-1-methyl-7-oxo-4,5,6,7-tetrahydro-1H-pyrazolo[3,4-c]pyridine-3-carboxamide]	6.65	6.79	
Cn1nc(C(=O)NCc2ccc(C#N)cc2)c2c1C(=O)N(CC1(S(=O)(=O)C3CCOC3)CC1)CC2 (single isomer, unassigned) [Example 170]		6.91	pIC50 [3, 7]: 8.40
COCC(C)(CO)S(=O)(=O)C1(CN2CCc3c(C(=O)NCc4ccc(C#N)cc4)nn(C)c3C2=O)CC1 (single isomer, unassigned) [Example 182, (R)- or (S)—N-(4-Cyanobenzyl)-6-((1-((1-hydroxy-3-methoxy-2-methylpropan-2-yl)sulfonyl)cyclopropyl)methyl)-1-methyl-7-oxo-4,5,6,7-tetrahydro-1H-pyrazolo[3,4-c]pyridine-3-carboxamide]	7.30		
Cn1nc(C(=O)NCc2ccc(C#N)cc2)c2c1C(=O)N(CC1(S(=O)(=O)C(C)(CN)CO)CC1)CC2 (single isomer, unassigned) [Example 184]		7.28	pIC50 [3, 7]: 8.40
Cn1nc(C(=O)NCc2ccc(Cl)cc2)c2c1C(=O)N(CC1(S(=O)(=O)C(C)(CN)CO)CC1)CC2 (single isomer, unassigned) [Example 187]	7.15	7.07	
Cn1nc(C(=O)NCc2ccc(Cl)cc2)c2c1C(=O)N(CC1(S(=O)(=O)C(C)(CN)CO)CC1)CC2 (single isomer, unassigned) [Example 188]	6.80	6.97	
Cn1nc(C(=O)NCc2ccc(C#N)cc2)c2c1C(=O)N(CC1(S(=O)(=O)C(C)(C)C(O)C(C)(C)N)CC1)CC2 (single isomer, unassigned) [Example 211, (R)- or (S)-6-((1-((4-Amino-3-hydroxy-2,4-dimethylpentan-2-yl)sulfonyl)cyclopropyl)methyl)-N-(4-cyanobenzyl)-1-methyl-7-oxo-4,5,6,7-tetrahydro-1H-pyrazolo[3,4-c]pyridine-3-carboxamide]	7.55		
Cn1nc(C(=O)NCc2ccc(C#N)cc2)c2c1C(=O)N(CC1(S(=O)(=O)C(C)(C)C(O)C(C)(C)N)CC1)CC2 (single isomer, unassigned) [Example 212, (R)- or (S)-6-((1-((4-Amino-3-hydroxy-2,4-dimethylpentan-2-yl)sulfonyl)cyclopropyl)methyl)-N-(4-cyanobenzyl)-1-methyl-7-oxo-4,5,6,7-tetrahydro-1H-pyrazolo[3,4-c]pyridine-3-carboxamide]	8.15		
CC(O)Cn1nc(C(=O)NCc2ccc(C#N)cc2)c2c1C(=O)N(CC1(S(=O)(=O)C3CC3)CC1)CC2 (single isomer, unassigned) [Example 226, (R)- or (S)—N-(4-Cyanobenzyl)-6-((1-(cyclopropylsulfonyl)cyclopropyl)methyl)-1-(2-hydroxypropyl)-7-oxo-4,5,6,7-tetrahydro-1H-pyrazolo[3,4-c]pyridine-3-carboxamide]	7.36		
Cn1nc(C(=O)NCc2ccc(Cl)cc2)c2c1C(=O)N(CC1(S(=O)(=O)C(C)(CN)CO)CC1)CC2 (centres unmarked) [Example 186]		7.43	pEC50 ([1]; NN-NHDF cells, MOI of 1, 72 hrs, read-out: CMV-Luc Cellular EC50): 7.05
Cn1nc(C(=O)NCc2ccc(C#N)cc2)c2c1C(=O)N(CC1(S(=O)(=O)C(C)(C)[C@H](O)CO)CC1)CC2 [Example 193, (R)—N-(4-cyanobenzyl)-6-((1-((3,4-dihydroxy-2-methylbutan-2-yl)sulfonyl)cyclopropyl)methyl)-1-methyl-7-oxo-4,5,6,7-tetrahydro-1H-pyrazolo[3,4-c]pyridine-3-carboxamide]		7.96	pEC50 ([1]; Human betaherpesvirus 5, AD169, 72 h, read-out: CMV-Luc Cellular EC50, NN-NHDF cells, MOI of 1, 72 hrs): 7.66
CC1(S(=O)(=O)C2(CN3CCc4c(C(=O)NCc5ccc(C#N)cc5)nn(CCCO)c4C3=O)CC2)CC1 [Example 237, N-(4-Cyanobenzyl)-1-(3-hydroxypropyl)-6-((1-((1-methylcyclopropyl)sulfonyl)cyclopropyl)methyl)-7-oxo-4,5,6,7-tetrahydro-1H-pyrazolo[3,4-c]pyridine-3-carboxamide]		7.39	
CC(C)(CO)S(=O)(=O)C1(CN2CCc3c(C(=O)NCc4ccc(C#N)cc4)nn(CCOCCBr)c3C2=O)CC1 [Example 238, 1-(2-(2-Bromoethoxy)ethyl)-N-(4-cyanobenzyl)-6-((1-((1-hydroxy-2-methylpropan-2-yl)sulfonyl)cyclopropyl)methyl)-7-oxo-4,5,6,7-tetrahydro-1H-pyrazolo[3,4-c]pyridine-3-carboxamide]		7.80	
